*1 amine or outer side, *2 acyl side, *3 side chain or, on linkers, in order; H or OH if unused. Where a SMILES comes first, the peptide text is derived from it. Side-chain parts run from the residue outwards. [ ]: non-standard residue; d: D form. The star is where a group is joined. γGlu = O=C(O)[C@H](CCC(=O)[*:2])N[*:1]; C14 diacid = O=C(O)CCCCCCCCCCCCC(=O)*; NMeI = CC[C@H](C)[C@H](NC)C(=O)O; Api = NC1(C(=O)O)CCNCC1; AEEA = NCCOCCOCC(=O)O; Aib = CC(C)(N)C(=O)O
Experiments:
human CRF2a receptor = biological target: T1, human CRF2a receptor (Homo sapiens, UniProt Q13324); assay: Activity at human CRF2a receptor, cAMP functional assay in TeloHEAC cells; type: cell-based; conditions: TeloHEAC cells stably expressing human CRF2a receptor, relative to urocortin 2 (100 nM = 100%)
T1 construct: expressed in transfected cells; host or cells: TeloHEAC cells
T1 sequence (Q13324 1-411): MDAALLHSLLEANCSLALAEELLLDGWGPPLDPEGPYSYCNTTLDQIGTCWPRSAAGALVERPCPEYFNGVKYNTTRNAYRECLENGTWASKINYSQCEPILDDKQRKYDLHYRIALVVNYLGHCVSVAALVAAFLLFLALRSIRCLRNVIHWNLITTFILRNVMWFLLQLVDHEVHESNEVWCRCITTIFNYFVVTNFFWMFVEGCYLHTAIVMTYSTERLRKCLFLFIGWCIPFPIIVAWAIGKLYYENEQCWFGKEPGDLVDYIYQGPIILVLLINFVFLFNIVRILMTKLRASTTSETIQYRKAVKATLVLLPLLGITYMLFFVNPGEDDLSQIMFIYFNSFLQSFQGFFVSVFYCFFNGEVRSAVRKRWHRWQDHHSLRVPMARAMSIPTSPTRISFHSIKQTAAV
Method in brief: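 TeloHEAC cells stably expressing human CRF2a (10000 cells/well, suspended in HBSS/20 mM HEPES with 2 mM IBMX) were exposed to compounds for 30 min at 37 °C. cAMP was read as the 665/620 nm fluorescence ratio after 1 h at room temperature. EC50 was derived relative to 100 nM urocortin 2, set as 100%.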

CFR1R receptor = biological target: T2, CFR1R receptor (Homo sapiens, UniProt P34998); assay: Activity at anti-target CFR1R receptor, cAMP assay in CRF1R-overexpression CHO-K1 cells; type: cell-based; conditions: 100% = Sauvagine at 100 nM; for EC50: cAMP
T2 construct: host or cells: CHO-K1 (clone 2)
T2 sequence (P34998 24-415): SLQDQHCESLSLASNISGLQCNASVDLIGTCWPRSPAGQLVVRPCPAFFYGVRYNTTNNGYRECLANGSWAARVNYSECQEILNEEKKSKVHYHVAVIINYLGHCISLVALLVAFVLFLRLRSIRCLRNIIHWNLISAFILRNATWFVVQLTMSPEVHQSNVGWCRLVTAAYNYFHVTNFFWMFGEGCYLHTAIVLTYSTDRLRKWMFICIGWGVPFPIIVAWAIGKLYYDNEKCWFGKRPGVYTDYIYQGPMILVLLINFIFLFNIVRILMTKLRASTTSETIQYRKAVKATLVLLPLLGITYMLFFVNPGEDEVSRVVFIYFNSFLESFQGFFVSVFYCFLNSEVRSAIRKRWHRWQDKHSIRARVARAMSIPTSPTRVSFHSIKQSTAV
Method in brief: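 Grow clone 2 to near confluence at 37° C. under 5% CO2 in F12 (Hams) with 10% FBS and G418, harvest, and freeze in 10% DMSO. Thaw and plate at 4000 cells/well. Then proceed per the TeloHAEC method, normalising to Sauvagine 100 nM as maximum.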

EC50 (human CRF2a receptor) [nM] | Emax (% I) (CFR1R receptor) | EC50 (CFR1R receptor) [nM] | SMILES
18.9 | 5 | > 250 | CC[C@H](C)[C@H](NC(C)=O)C(=O)N[C@H](C(=O)N[C@@H](CC(C)C)C(=O)N[C@@H](CO)C(=O)N[C@@H](CC(C)C)C(=O)N[C@@H](CC(=O)O)C(=O)N[C@@H](C(=O)N1CCC[C@H]1C(=O)N[C@H](C(=O)N[C@@H](CCCCN)C(=O)N[C@@H](CC(C)C)C(=O)N[C@@H](CCCCNC(=O)COCCOCCNC(=O)COCCOCCNC(=O)CC[C@H](NC(=O)CC[C@H](NC(=O)CCCCCCCCCCCCC(=O)O)C(=O)O)C(=O)O)C(=O)N[C@@H](CCCCN)C(=O)N[C@H](C(=O)N[C@@H](CC(C)C)C(=O)N[C@@H](CC(C)C)C(=O)N[C@@H](CCC(=O)O)C(=O)N[C@@H](CCC(N)=O)C(=O)N[C@@H](CCC(=O)O)C(=O)N[C@@H](CCCCN)C(=O)N[C@@H](CCC(N)=O)C(=O)N[C@@H](CCCCN)C(=O)N[C@@H](CCCCN)C(=O)N[C@@H](CCC(N)=O)C(=O)N[C@@H](CCCNC(=N)N)C(=O)N[C@@H](CCC(=O)O)C(=O)N[C@@H](CCC(N)=O)C(=O)N[C@@H](C)C(=O)N[C@@H](CCC(=O)O)C(=O)N[C@H](C(=O)N[C@@H](CC(N)=O)C(=O)NC1(C(=O)N[C@@H](CCC(N)=O)C(=O)N[C@H](C(=O)N[C@@H](CC(C)C)C(=O)N[C@@H](C)C(=O)N[C@@H](CCC(N)=O)C(=O)N[C@H](C(N)=O)C(C)C)[C@@H](C)CC)CCNCC1)[C@@H](C)O)[C@@H](C)CC)[C@@H](C)CC)C(C)C)C(C)C [compound 175] (Ac-IVLSLD[dV]PIKLK([AEEA-AEEA-γGlu-γGlu-C14 diacid])KILLEQEKQKKQREQAETN[Api]QILAQV-NH2)
0.99 | 8 | > 250 | CC[C@H](C)[C@H](NC)C(=O)N[C@H](C(=O)N[C@@H](CC(C)C)C(=O)N[C@@H](CO)C(=O)N[C@@H](CC(C)C)C(=O)N[C@@H](CC(=O)O)C(=O)N[C@@H](C(=O)N1CCC[C@H]1C(=O)N[C@H](C(=O)N[C@@H](CCCCN)C(=O)N[C@@H](CC(C)C)C(=O)N[C@@H](CCCCNC(=O)CC[C@H](NC(=O)CCCCCCCCCCCCC(=O)O)C(=O)O)C(=O)N[C@@H](CCCCN)C(=O)N[C@H](C(=O)N[C@@H](CC(C)C)C(=O)N[C@@H](CC(C)C)C(=O)N[C@@H](CCC(=O)O)C(=O)N[C@@H](CCC(N)=O)C(=O)N[C@@H](CCC(=O)O)C(=O)N[C@@H](CCCCN)C(=O)N[C@@H](CCC(N)=O)C(=O)N[C@@H](CCCCN)C(=O)N[C@@H](C)C(=O)N[C@@H](CCC(N)=O)C(=O)N[C@@H](CCCNC(=N)N)C(=O)N[C@@H](CCC(=O)O)C(=O)N[C@@H](CCC(N)=O)C(=O)N[C@@H](C)C(=O)N[C@@H](CCC(=O)O)C(=O)N[C@H](C(=O)N[C@@H](CC(N)=O)C(=O)NC(C)(C)C(=O)N[C@@H](CCC(N)=O)C(=O)N[C@H](C(=O)N[C@@H](CC(C)C)C(=O)N[C@@H](C)C(=O)N[C@@H](CCC(N)=O)C(=O)N[C@H](C(N)=O)C(C)C)[C@@H](C)CC)[C@@H](C)O)[C@@H](C)CC)[C@@H](C)CC)C(C)C)C(C)C [compound 176] (H-[NMeI]VLSLD[dV]PIKLK([γGlu-C14 diacid])KILLEQEKQKAQREQAETN[Aib]QILAQV-NH2)
0.86 | 10 | > 250 | CC[C@H](C)[C@H](NC)C(=O)N[C@H](C(=O)N[C@@H](CC(C)C)C(=O)N[C@@H](CO)C(=O)N[C@@H](CC(C)C)C(=O)N[C@@H](CC(=O)O)C(=O)N[C@@H](C(=O)N1CCC[C@H]1C(=O)N[C@H](C(=O)N[C@@H](CCCCN)C(=O)N[C@@H](CC(C)C)C(=O)N[C@@H](CCCCNC(=O)CC[C@H](NC(=O)CCCCCCCCCCCCC(=O)O)C(=O)O)C(=O)N[C@@H](CCCCN)C(=O)N[C@H](C(=O)N[C@@H](CC(C)C)C(=O)N[C@@H](CC(C)C)C(=O)N[C@@H](CCC(=O)O)C(=O)N[C@@H](CCC(N)=O)C(=O)N[C@@H](CCC(=O)O)C(=O)N[C@@H](CCCCN)C(=O)N[C@@H](CCC(N)=O)C(=O)N[C@@H](CCCCN)C(=O)NC(C)(C)C(=O)N[C@@H](CCC(N)=O)C(=O)N[C@@H](CCCNC(=N)N)C(=O)N[C@@H](CCC(=O)O)C(=O)N[C@@H](CCC(N)=O)C(=O)N[C@@H](C)C(=O)N[C@@H](CCC(=O)O)C(=O)N[C@H](C(=O)N[C@@H](CC(N)=O)C(=O)NC(C)(C)C(=O)N[C@@H](CCC(N)=O)C(=O)N[C@H](C(=O)N[C@@H](CC(C)C)C(=O)N[C@@H](C)C(=O)N[C@@H](CCC(N)=O)C(=O)N[C@H](C(N)=O)C(C)C)[C@@H](C)CC)[C@@H](C)O)[C@@H](C)CC)[C@@H](C)CC)C(C)C)C(C)C [compound 177] (H-[NMeI]VLSLD[dV]PIKLK([γGlu-C14 diacid])KILLEQEKQK[Aib]QREQAETN[Aib]QILAQV-NH2)

Further lines, the compound ahead of its results:

SMILES | EC50 (human CRF2a receptor) [nM] | Emax (% I) (CFR1R receptor) | EC50 (CFR1R receptor) [nM]
CC[C@H](C)[C@H](NC(C)=O)C(=O)N[C@H](C(=O)N[C@@H](CC(C)C)C(=O)N[C@@H](CO)C(=O)N[C@@H](CC(C)C)C(=O)N[C@@H](CC(=O)O)C(=O)N[C@@H](C(=O)N1CCC[C@H]1C(=O)N[C@H](C(=O)N[C@@H](CCCCN)C(=O)N[C@@H](CC(C)C)C(=O)N[C@@H](CCCCNC(=O)COCCOCCNC(=O)COCCOCCNC(=O)CC[C@H](NC(=O)CCCCCCCCCCCCC(=O)O)C(=O)O)C(=O)N[C@@H](CCCCN)C(=O)N[C@H](C(=O)N[C@@H](CC(C)C)C(=O)N[C@@H](CC(C)C)C(=O)N[C@@H](CCC(=O)O)C(=O)N[C@@H](CCC(N)=O)C(=O)N[C@@H](CCC(=O)O)C(=O)N[C@@H](CCCCN)C(=O)N[C@@H](CCC(N)=O)C(=O)N[C@@H](CCCCN)C(=O)N[C@@H](CCCCN)C(=O)N[C@@H](CCC(N)=O)C(=O)N[C@@H](CCCNC(=N)N)C(=O)N[C@@H](CCC(=O)O)C(=O)N[C@@H](CCC(N)=O)C(=O)N[C@@H](C)C(=O)N[C@@H](CCC(=O)O)C(=O)N[C@H](C(=O)N[C@@H](CC(N)=O)C(=O)NC1(C(=O)N[C@@H](CCC(N)=O)C(=O)N[C@H](C(=O)N[C@@H](CC(C)C)C(=O)N[C@@H](C)C(=O)N[C@@H](CCC(N)=O)C(=O)N[C@H](C(N)=O)C(C)C)[C@@H](C)CC)CCNCC1)[C@@H](C)O)[C@@H](C)CC)[C@@H](C)CC)C(C)C)C(C)C [compound 172] (Ac-IVLSLD[dV]PIKLK([AEEA-AEEA-γGlu-C14 diacid])KILLEQEKQKKQREQAETN[Api]QILAQV-NH2) | 16.1 | −6 | > 250
CC[C@H](C)[C@H](NC(C)=O)C(=O)N[C@H](C(=O)N[C@@H](CC(C)C)C(=O)N[C@@H](CO)C(=O)N[C@@H](CC(C)C)C(=O)N[C@@H](CC(=O)O)C(=O)N[C@@H](C(=O)N1CCC[C@H]1C(=O)N[C@H](C(=O)N[C@@H](CCCCN)C(=O)N[C@@H](CC(C)C)C(=O)N[C@@H](CCCCNC(=O)COCCOCCNC(=O)COCCOCCNC(=O)CC[C@H](NC(=O)CCCCCCCCCCCCC(=O)O)C(=O)O)C(=O)N[C@@H](CCCCN)C(=O)N[C@H](C(=O)N[C@@H](CC(C)C)C(=O)N[C@@H](CC(C)C)C(=O)N[C@@H](CCC(=O)O)C(=O)N[C@@H](CCC(N)=O)C(=O)N[C@@H](CCC(=O)O)C(=O)N[C@@H](CCCCN)C(=O)N[C@@H](CCC(N)=O)C(=O)N[C@@H](CCCCN)C(=O)NC(C)(C)C(=O)N[C@@H](CCC(N)=O)C(=O)N[C@@H](CCCNC(=N)N)C(=O)N[C@@H](CCC(=O)O)C(=O)N[C@@H](CCC(N)=O)C(=O)N[C@@H](C)C(=O)N[C@@H](CCC(=O)O)C(=O)N[C@H](C(=O)N[C@@H](CC(N)=O)C(=O)NC1(C(=O)N[C@@H](CCC(N)=O)C(=O)N[C@H](C(=O)N[C@@H](CC(C)C)C(=O)N[C@@H](C)C(=O)N[C@@H](CCC(N)=O)C(=O)N[C@H](C(N)=O)C(C)C)[C@@H](C)CC)CCNCC1)[C@@H](C)O)[C@@H](C)CC)[C@@H](C)CC)C(C)C)C(C)C [compound 173] (Ac-IVLSLD[dV]PIKLK([AEEA-AEEA-γGlu-C14 diacid])KILLEQEKQK[Aib]QREQAETN[Api]QILAQV-NH2) | 28.1 | −1 | > 250

Source: US20260001928A1 (CORTERIA PHARMACEUTICALS, priority 2022, published 2026)
